Measurements as given in patent US10030064B2, “Mammalian cell culture processes for protein production” (priority 2009, dated 2018).

What was measured:
Assay type in all cases: cell-based, Chinese hamster
[1] = system: CHO cells; test: Fed-batch 10-L bioreactor CHO culture: VCD, viability, titer
Description: Bioreactor experiments were performed in 10-L bioreactors (Sartorius Stedim Biotech, France) with starting working volumes of 5 L. Agitation, pH and dissolved oxygen were controlled at 150 rpm, 7.05, and 50% air saturation, respectively. Temperature was initially controlled at 37° C. and was shifted to lower temperature during the culture to extend the culture viability. The bioreactors were operated in a batch fed mode and were fed daily starting on day 3 with the proprietary feed medium to maintain adequate concentrations for glucose and other nutrients. Samples were taken during the cell culture process and analyzed for cell density, cell viability, substrates and metabolites.
The eluted protein was quantified using a 10-level standard curve.
Different from shake flask runs, bioreactor runs were extended to 14 days, the culture temperature was shifted to a lower temperature during the late exponential phase of the culture, and a proprietary feeding medium was used instead of feeding only glucose and glutamine.

[2] = system: GILZ (glucocorticoid-induced leucine zipper); test: qRT-PCR of GILZ gene expression in CHO cells; details: 1 μM DEX added day 2
Description: Purified RNA was treated with RNasefree DNaseI (Qiagen) and then used as a template to synthesize the first-strand cDNA using RT^2 First Strand Kit (SA Biosciences, Frederick, Md.). Expression of GILZ was quantitatively determined using GILZ specific TaqMan MGB probe (6-FAM-[…]) and primers (Forward: 5-[…]-3 and Reverse: 5-[…]-3). 20 ng of cDNA was amplified using 900 nM primers and 250 nM probe in 1× TaqMan Fast Universal PCR Master Mix (Applied Biosystems, Carlsbad, Calif.). Reactions were run in triplicate on the Applied Biosystems 7500 Fast Real-Time PCR System using the universal cycling parameters (20 s 95° C., 40 cycles of 3 s 95° C., 30 s 60° C.). Parallel reactions were set up on the same plate analyzing β-Actin in each sample as an endogenous control. The threshold cycle of each gene was normalized against the threshold cycle of “housekeeping gene” […]. Normalized changes in gene expression with respect to the control were calculated using delta-delta threshold cycle method (Livak and Schmittgen, 2001).
GILZ was analyzed using qRT-PCR to validate the gene expression profiles obtained by microarray analysis. […] Parallel reactions were set up on the same plate analyzing β-Actin in each sample as an endogenous control.

[3] = system: CHO cells; test: Shake flask CHO culture: cell viability profile (Example 1); details: 1 μM DEX from day 2
Description: (§1) The experiments were carried out in 250-mL shake flasks (VWR international) with starting volumes of 100 mL and initial cell densities of 6×10^5 cells/mL. The cultures were placed on a shaker platform (VWR international) at 150 rpm and maintained at 37° C. and 6% CO2 for ten days. The cultures were sampled daily and the pH was adjusted as needed using 1M sodium carbonate and fed with glucose and glutamine every two days in order to maintain them at adequate levels. Cell density and viability were measured offline using a Cedex automated cell counter (Innovatis AG, Bielefeld, Germany). Culture pH and concentrations for glucose and glutamine were measured off-line using a Bioprofile Analyzer 400 (Nova Biomedical Corporation, Waltham, Mass.).

[4] = system: sialidase; test: Sialidase activity in culture supernatant (Amplex Red Neuraminidase assay); details: 1 μM DEX from day 2, absorbance at 560 nm
Description: Sialidase activity was analyzed using the Amplex Red Neuraminidase (Sialidase) Assay Kit (Invitrogen, Carlsbad, Calif.). Briefly, neuraminidase in the sample is used to desialylate fetuin. This assay utilizes Amplex Red to detect H2O2 generated by oxidation of the desialylated galactose residues on the fetuin by galactose oxidase. The H2O2, in the presence of HRP, reacts stoichiometrically with Amplex Red reagent to generate the red-fluorescent oxidation product, resorufin 5, which is then analyzed either fluorometrically or spectrophotometrically. In each assay, 50 μL of working solution (100 μM Amplex Red, 0.2 U/mL HRP, 4 U/mL galactose oxidase and 500 μg/mL fetuin) was added into each microplate well containing 50 μL of diluted cell culture supernatant. After 30 minutes incubation at 37° C., samples were analyzed for absorbance at 560 nm using a microplate reader.
As shown in FIG. 2A and FIG. 2B, increased sialidase activity was associated with the decreased cell viabilities in both the DEX-treated and untreated cultures.

[5] = system: CHO cell line with CTLA4Ig secretion; test: Shake flask culture of CHO cell line secreting CTLA4Ig: VCD and viability (Example 4)
Description: The CHO cell line used in this study was originally subcloned from DG44 parental cells and cultured in a proprietary chemical-defined growth medium.
as §1, with “levels. […]” for “levels.”, “Mass.). Supernatants from culture harvests were collected for analysis of sialic acid content and HMW level.” for “Mass.).”
Cell viability for the untreated cultures decreased rapidly after Day 6 (FIG. 16B) and percent viability on day 10 was only 64.5%.

[6] = day 14, 1 μM DEX added on day 2
[7] = day 14, 1 μM DEX added on day 7

C[C@@H]1C[C@H]2[C@@H]3CCC4=CC(=O)C=C[C@]4(C)[C@@]3(F)[C@@H](O)C[C@]2(C)[C@@]1(O)C(=O)CO [DEX, dexamethasone]
maximum cell density ([1]; 1 μM DEX added on either day 2 or day 7, day 8): approximately 8.3 ×10^6 cell/mL
Cell viability ([1]; day 6, all conditions): 94%
Normalized protein titer ([1]; day 7, prior to the maximum VCD): approximately 5.5
increase of day 14 normalized titer vs without DEX ([1]; day 14): 20%
Final VCD [1, 6]: 4.1 ×10^6 cell/mL
percent viability [1, 6]: 55%
Final VCD [1, 7]: 3.5 ×10^6 cell/mL
percent viability [1, 7]: 39%
harvest normalized titer ([1]; day 14, both bioreactors with DEX): 12.5
normalized expression profile change of GILZ (qRT-PCR) ([2]; day 5 samples): 7.66±1.08
normalized expression profile change of GILZ (qRT-PCR) ([2]; day 8 samples): 10.48±2.16
Cell viability ([3]; day 4): 98.0±0.1%
Cell viability ([3]; day 10): 85.0±2.7%
absorbance measurement of sialidase activity ([4]; day 4): 0.006±0.002
absorbance measurement of sialidase activity ([4]; day 10): 0.024±0.003
final cell viability (day 10) ([5]; 0.001 μM DEX added day 2): 75.5%
final cell viability (day 10) ([5]; 10 μM DEX added day 2): 82.3%
